Assay results published in patent US20100197650A1, “COMPOSITIONS AND METHODS OF TREATMENT COMPRISING CEFTAROLINE” (FOREST LABORATORIES HOLDINGS LTD., priority 2008, published 2010).
Converted amounts (≈) assume the structure as drawn.

How the values were obtained:
[1] = test system: AmpC-derepressed Enterobacter cloacae; assay: microbe, parasite or virus in culture; assay type: cell-based; settings: for MBC / MIC: Enterobacter cloacae
[2] = test system: ESBL-producing Klebsiella pneumoniae; assay: Susceptibility testing MIC/MBC, broth microdilution (Example 2); assay type: cell-based; settings: for MBC / MIC: Klebsiella pneumoniae
Streptococcus pneumoniae = assay: MIC, broth microdilution (Example 1); assay type: cell-based
How it was run: (§1)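 Media: Haemophilus Test Medium (H. influenzae); MH II broth + 2% lysed horse blood (S. pneumoniae); plain MH II broth (K. pneumoniae, P. aeruginosa). 2-fold serial dilutions in DMSO, 5% v/v drug in well. 35 °C, ~20 h. MIC read by eye at growth/no-growth.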

Staphylococcus aureus = assay: MIC, broth microdilution (Example 1); assay type: cell-based; settings: Staphylococcus aureus, MRSA
How it was run: (§2)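 Frozen clinical or ATCC isolates are subcultured overnight on agar at 35 °C. Agents are serially diluted 2-fold in DMSO, then added to broth at 5% volume: HTM for Haemophilus, MH II for the rest, plus 2% lysed horse blood for pneumococci. Plates are incubated ~20 h at 35 °C and read visually.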

Acinetobacter baumannii = assay: MIC, broth microdilution (Example 1); assay type: cell-based
How it was run: as §2

Klebsiella pneumoniae = assay: MIC, broth microdilution (Example 1); assay type: cell-based; settings: Klebsiella pneumoniae
How it was run: as §1

[3] = test system: clinical Enterobacteriacae and P. aeruginosa isolates; assay: Susceptibility testing (Example 2), summary over species; assay type: cell-based; settings: Pseudomonas aeruginosa, read-out: MIC values
ESBL-producing E. coli = assay: Susceptibility testing MIC/MBC, broth microdilution (Example 2); assay type: cell-based, Escherichia coli; settings: for MBC / MIC: Escherichia coli
P. aeruginosa = assay: as above; assay type: cell-based, Pseudomonas aeruginosa; settings: for MBC / MIC: Pseudomonas aeruginosa
[4] = E. cloacae (10) clinical isolates
[5] = K. pneumonia (10) clinical isolates
[6] = P. aeruginosa (20) clinical isolates

**Q.** For `CN(C)c1cc(NC(=O)CNC(C)(C)C)c(O)c2c1C[C@H]1C[C@H]3[C@H](N(C)C)C(O)=C(C(N)=O)C(=O)[C@@]3(O)C(O)=C1C2=O` [Tigecycline], which MBC range [1, 4] is on record?
**A.** 0.5 to 4 µg/mL

**Q.** And the MIC range [1, 4]?
**A.** 0.25 to 2 µg/mL

**Q.** And the MBC ([1]; E. cloacae isolate no. 4073)?
**A.** 2 µg/mL (≈ 3.41 µM)

**Q.** And the MIC ([1]; E. cloacae isolate no. 4073)?
**A.** 0.5 µg/mL (≈ 0.854 µM)

**Q.** And the MBC ([1]; E. cloacae isolate no. 5420)?
**A.** 2 µg/mL (≈ 3.41 µM)

**Q.** What about the MIC ([1]; E. cloacae isolate no. 5420) of the same compound?
**A.** 0.5 µg/mL (≈ 0.854 µM)

**Q.** What about the MBC range [2, 5] of the same compound?
**A.** 0.5 to 8 µg/mL

**Q.** What about the MIC range [2, 5] of the same compound?
**A.** 0.125 to 1 µg/mL

**Q.** And the MBC ([2]; K. pneumonia isolate no. 5427)?
**A.** 2 µg/mL (≈ 3.41 µM)

**Q.** What about the MIC ([2]; K. pneumonia isolate no. 5427) of the same compound?
**A.** 0.5 µg/mL (≈ 0.854 µM)

**Q.** What about the MBC ([2]; K. pneumonia isolate no. 5436) of the same compound?
**A.** 1 µg/mL (≈ 1.71 µM)

**Q.** And the MIC ([2]; K. pneumonia isolate no. 5436)?
**A.** 0.125 µg/mL (≈ 0.213 µM)

**Q.** What about the MIC (Streptococcus pneumoniae; S. pneumoniae 0884 (PRSP)) of the same compound?
**A.** 0.03 µg/mL

**Q.** What about the MIC (Streptococcus pneumoniae; Streptococcus pneumoniae, PRSP) of the same compound?
**A.** 0.03 µg/mL

**Q.** And the MIC (Staphylococcus aureus; S. aureus 0765 (MRSA))?
**A.** 0.25 µg/mL

**Q.** And the MIC (Staphylococcus aureus; S. aureus 2053 (MRSA))?
**A.** 0.5 µg/mL

**Q.** And the MIC (Acinetobacter baumannii; A. baumannii 2602)?
**A.** 0.06 µg/mL

**Q.** What about the MIC (Acinetobacter baumannii; Acinetobacter baumannii) of the same compound?
**A.** 0.06 µg/mL

**Q.** And the MIC (Klebsiella pneumoniae)?
**A.** 0.25 µg/mL

**Q.** And the MIC [3]?
**A.** ≤ 8 µg/mL

**Q.** And the MBC range (ESBL-producing E. coli; E. coli (10) clinical isolates)?
**A.** 0.06 to 4 µg/mL

**Q.** What about the MIC range (ESBL-producing E. coli; E. coli (10) clinical isolates) of the same compound?
**A.** 0.06 to 0.5 µg/mL

**Q.** And the MBC (ESBL-producing E. coli; E. coli isolate no. 5401)?
**A.** 1 µg/mL (≈ 1.71 µM)

**Q.** What about the MIC (ESBL-producing E. coli; E. coli isolate no. 5401) of the same compound?
**A.** 0.5 µg/mL (≈ 0.854 µM)

**Q.** And the MBC (ESBL-producing E. coli; E. coli isolate no. 5411)?
**A.** 0.5 µg/mL (≈ 0.854 µM)

**Q.** What about the MIC (ESBL-producing E. coli; E. coli isolate no. 5411) of the same compound?
**A.** 0.125 µg/mL (≈ 0.213 µM)

**Q.** And the MBC range (P. aeruginosa; [6])?
**A.** 8 to 256 µg/mL

**Q.** What about the MIC range (P. aeruginosa; [6]) of the same compound?
**A.** 2 to 32 µg/mL

**Q.** And the MBC (P. aeruginosa; P. aeruginosa isolate no. 796)?
**A.** 32 µg/mL (≈ 54.6 µM)

**Q.** What about the MIC (P. aeruginosa; P. aeruginosa isolate no. 796) of the same compound?
**A.** 32 µg/mL (≈ 54.6 µM)

**Q.** And the MBC (P. aeruginosa; P. aeruginosa isolate no. 956)?
**A.** 128 µg/mL (≈ 219 µM)

**Q.** What about the MIC (P. aeruginosa; P. aeruginosa isolate no. 956) of the same compound?
**A.** 16 µg/mL (≈ 27.3 µM)

**Q.** What about the MBC (P. aeruginosa; P. aeruginosa isolate no. 1019) of the same compound?
**A.** 8 µg/mL (≈ 13.7 µM)

**Q.** And the MIC (P. aeruginosa; P. aeruginosa isolate no. 1019)?
**A.** 2 µg/mL (≈ 3.41 µM)

**Q.** And the MBC (P. aeruginosa; P. aeruginosa isolate no. 1037)?
**A.** 32 µg/mL (≈ 54.6 µM)

**Q.** And the MIC (P. aeruginosa; P. aeruginosa isolate no. 1037)?
**A.** 8 µg/mL (≈ 13.7 µM)
